The test relates to nasal polyps. Nature of the test: Two week treatment of nine patients with omeprazole, intranasal budesonide and oral deflazacort (Examples 2 to 10). It counts as in vivo, human. The settings on record: two weeks, 20 mg omeprazole, 100 μg intranasal budesonide, 3 to 15 mg oral deflazacort. Here is the method:
Nine patients, each with the conditions shown in the following Table 1, were treated during a two week period. The treatment consisted of 20 mg of omeprazole, 100 μg of intranasal budesonide and 3 to 15 mg of oral deflazacort (deflazacort was used in such a small quantity to ensure the patients' compliance).

From patent publication US6599927B2, “Use of an H+, K+-ATPase inhibitor in the treatment of Widal's Syndrome” (AstraZeneca AB, priority 1996, dated 2003) come the findings set out here.

Each structure is given as a SMILES string. Entries after “also recorded” stand apart in the source; their conditions may differ.

With `COc1ccc2[nH]c([S+]([O-])Cc3ncc(C)c(OC)c3C)nc2c1` (stereo not drawn) [omeprazole], the Result result (patient with Nasal Polyposis and aspirin intolerance (Example 9)) is on record as “Positive effect”; the Result entry (patients with Nasal Polyposis (Examples 5-8)) is recorded as “Positive effect; also recorded: Long term benefit”; the Result result (patients with Widal's Syndrome (Examples 2-4)) is reported as “Temporary benefit; also recorded: Positive effect”.
